Laboratory results taken from patent US7034018B2, “Substituted pyrrole mannich bases to combat pain and allergic reactions” (Gruenenthal GmbH, priority 1999, dated 2006).

Columns and labels:
[1] = system: phenylquinone-induced writhing in mice; experiment: Analgesia test in the phenylquinone-induced writhing test in mice; assay type: in vivo; details: male NMRI mice; standard dose of 10 mg/kg, intravenous, 10 minutes before phenylquinone i.p.
Protocol: The in-depth investigation for analgesic activity was carried out in the phenylquinone-induced writhing in mice (modified by I. C. Hendershot, J. Forsaith, J. Pharmacol. Exp. Ther. 125, 237-240 (1959)). Male NMRI mice weighing 25-30 g were used for this. Groups of 10 animals per substance dose received 0.3 ml/mouse of a 0.02% aqueous solution of phenylquinone (phenylbenzoquinone, Sigma, Deisenhofen; preparation of the solution with the addition of 5% ethanol and storage in a water bath at 45° C.) administered intraperitoneally 10 minutes after intravenous administration of the test substances. The animals were placed individually in observation cages. The number of pain-induced stretching movements (so-called writhing reactions=straightening of the body with stretching of the hind extremities) were counted by means of a push-button counter for 5-20 minutes after the administration of phenylquinone. Animals which received only physiological saline solution were also run as a control.
The substances were tested in the standard dose of 10 mg/kg. The inhibition of the writhing reactions by a substance was calculated according to the following equation: [formula]

5-HT transporter = target: T1, 5-HT transporter (Rattus norvegicus, UniProt P31652); experiment: Inhibition of serotonin re-uptake (5-HT uptake inhibition) in rat brain synaptosomes; assay type: biochemical; parameters: concentration or dose not given beside the values; details: synaptosomes (P2 fraction) from pons and medulla oblongata region of male rat brain; means from 2 parallel experiments
T1 construct: these vesicular particles were isolated from the pons and medulla oblongata region of the male rat brain; from tissue; host or cells: rat brain synaptosomes (P2 fraction) from the pons and medulla oblongata of male rats
T1 sequence (P31652 whole entry): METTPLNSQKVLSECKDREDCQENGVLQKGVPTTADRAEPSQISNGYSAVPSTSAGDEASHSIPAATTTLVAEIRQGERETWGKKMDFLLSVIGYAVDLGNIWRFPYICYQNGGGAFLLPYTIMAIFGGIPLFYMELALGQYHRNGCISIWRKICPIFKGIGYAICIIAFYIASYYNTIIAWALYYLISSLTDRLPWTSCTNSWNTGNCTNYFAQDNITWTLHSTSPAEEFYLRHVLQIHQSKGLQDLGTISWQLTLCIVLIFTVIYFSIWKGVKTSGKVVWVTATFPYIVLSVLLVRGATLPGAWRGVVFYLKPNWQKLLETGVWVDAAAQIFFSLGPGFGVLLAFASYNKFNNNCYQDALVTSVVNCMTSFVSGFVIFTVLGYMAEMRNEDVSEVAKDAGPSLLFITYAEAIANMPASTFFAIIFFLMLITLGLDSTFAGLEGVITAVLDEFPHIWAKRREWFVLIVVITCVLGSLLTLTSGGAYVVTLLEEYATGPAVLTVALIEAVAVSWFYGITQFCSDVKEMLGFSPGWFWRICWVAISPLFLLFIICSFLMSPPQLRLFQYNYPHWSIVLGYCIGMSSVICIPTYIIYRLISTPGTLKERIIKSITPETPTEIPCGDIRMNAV
Protocol: The investigations of the inhibition of serotonin re-uptake (5-HT uptake inhibition) were carried out by the methods such as are described in M. Ch. Frink, H.-H.-Hennies, W. Englberger, M. Haurand and B. Wilffert, Arzneim.-Forsch./Drug. Res. 46 (III), 11, 1996, pages 1029-1036. They are introduced herewith as reference and thus form part of the disclosure.
To carry out these investigations, synaptosomes were freshly isolated from rat brain areas. In each case the so-called “P2” fraction was used, which was prepared according to the instructions in E. G. Gray and V. P. Whittaker, J. Anat. 76, pages 79-88, 1962. This literature is introduced herewith as reference and thus forms part of the disclosure. For determination of the 5-HT uptake, these vesicular particles were isolated from the pons and medulla oblongata region of the male rat brain.
The following characteristic data were determined for the 5-HT transporter: • 5-HT uptake: Km=0.084±0.011 μM • Vmax: 38.13±4.52 pmol/min/mg protein. The results of the investigations are in each case stated as means from 2 parallel experiments.

| Inhibition of 5HT uptake in % (5-HT transporter) [%] | SMILES | Inhibition of the Writhing reaction in % [1] [%] |
| --- | --- | --- |
|  | Cn1cccc1C(c1ccccc1)N1CCCC1 (centres unmarked) [Example 15, 1-Methyl-2-(phenylpyrrolidin-1-yl-methyl)-1H-pyrrole] | 87 |
|  | CN(C)C(c1ccccc1)c1cccn1C (centres unmarked) [Example 16, Dimethyl-[(1-methyl-1H-pyrrol-2-yl)-phenylmethyl]-amine] | 17 |
| 83 | N#CCCn1cccc1C(c1ccccc1F)N1CCCCC1 (centres unmarked) [Example 22, 3-{2-[(2-Fluoro-phenyl)-piperidin-1-yl-methyl]-pyrrol-1-yl}-propionitrile] |  |
| 57 | Brc1ccc(C(c2cccn2-c2ccccc2)N2CCCC2)cc1 (centres unmarked) [Example 23, 2-[(4-Bromo-phenyl)-pyrrolidin-1-yl-methyl]-1-phenyl-1H-pyrrole] |  |
| 59 | Cc1cccc(C(c2cccn2-c2ccccc2N)N2CCCCC2)c1 (centres unmarked) [Example 24, 2-[2-(Piperidin-1-yl-m-tolyl-methyl)-pyrrol-1-yl]-phenylamine] |  |
| 52 | Fc1cc(Br)ccc1C(c1cccn1Cc1ccccn1)N1CCCC1 (centres unmarked) [Example 25, 2-{2-[(4-Bromo-2-fluoro-phenyl)-pyrrolidin-1-yl-methyl]-pyrrol-1-ylmethyl}-pyridine] |  |
| 71 | c1ccc(Oc2cccc(C(c3cccn3Cc3ccccn3)N3CCCCC3)c2)cc1 (centres unmarked) [Example 26, 2-{2-[(3-Phenoxy-phenyl)-piperidin-1-yl-methyl]-pyrrol-1-ylmethyl}-pyridine] |  |
| 44 | NC(=S)c1ccccc1-n1cccc1C(c1cccc(Oc2ccccc2)c1)N1CCCCC1 (centres unmarked) [Example 27, 2-{2-[(3-Phenoxy-phenyl)-piperidin-1-yl-methyl]-pyrrol-1-yl}-thiobenzamide] |  |
| 40 | Fc1ccc(C(c2cccn2CCCl)N2CCCCC2)cc1 (centres unmarked) [Example 28, 1-[[1-(2-Chloro-ethyl)-1H-pyrrol-2-yl]-(4-fluoro-phenyl)-methyl]-piperidine] |  |
| 48 | OCCn1cccc1C(c1cccc(Oc2ccccc2)c1)N1CCCCC1 (centres unmarked) [Example 29, 2-{2-[(3-Phenoxy-phenyl)-piperidin-1-yl-methyl]-pyrrol-1-yl}-ethanol] |  |
| 43 | Cc1cccc(C(c2cccn2CCCO)N2CCCCC2)c1 (centres unmarked) [Example 30, 3-[2-(Piperidin-1-yl-m-tolyl-methyl)-pyrrol-1-yl]-propan-1-ol] |  |
| 50 | OCCCn1cccc1C(c1ccc(F)cc1)N1CCCCC1 (centres unmarked) [Example 31, 3-{2-[(4-Fluoro-phenyl)-piperidin-1-yl-methyl]-pyrrol-1-yl}-propan-1-ol] |  |
| 42 | Cn1cccc1C(c1ccc(F)cc1)N1CCCCC1 (centres unmarked) [Example 32, 1-[(4-Fluoro-phenyl)-(1-methyl-1H-pyrrol-2-yl)-methyl]-piperidine] |  |
| 55 | Cn1cccc1C(c1ccc(C(F)(F)F)cc1)N1CCCCC1 (centres unmarked) [Example 33, 1-[(1-Methyl-1H-pyrrol-2-yl)-(4-trifluoromethyl-phenyl)-methyl]-piperidine] |  |
| 39 | Nc1ccccc1-n1cccc1C(c1c(F)cccc1Cl)N1CCCC1 (centres unmarked) [Example 34, 2-{2-[(2-Chloro-6-fluoro-phenyl)-pyrrolidin-1-yl-methyl]-pyrrol-1-yl}-phenylamine] |  |
| 43 | Brc1cccc(C(c2cccn2Cc2ccccn2)N2CCCC2)c1 (centres unmarked) [Example 35, 2-{2-[(3-Bromo-phenyl)-pyrrolidin-1-yl-methyl]-pyrrol-1-ylmethyl}-pyridine] |  |
| 63 | Fc1ccc(C(c2cccn2Cc2ccccn2)N2CCCC2)cc1Br (centres unmarked) [Example 36, 2-{2-[(3-Bromo-4-fluoro-phenyl)-pyrrolidin-1-yl-methyl]-pyrrol-1-ylmethyl}-pyridine] |  |
| 39 | Fc1cccc(Cl)c1C(c1cccn1Cc1ccccn1)N1CCCC1 (centres unmarked) [Example 37, 2-{2-[(2-Chloro-6-fluoro-phenyl)-pyrrolidin-1-yl-methyl]-pyrrol-1-ylmethyl}-pyridine] |  |
| 45 | N#Cc1ccc(C(c2cccn2Cc2ccccn2)N2CCCC2)cc1 (centres unmarked) [Example 38, 4-[(1-Pyridin-2-ylmethyl-1H-pyrrol-2-yl)-pyrrolidin-1-yl-methyl]-benzonitrile] |  |
| 37 | Fc1ccc(-n2cccc2C(c2ccc(F)c(Br)c2)N2CCCC2)cc1 (centres unmarked) [Example 39, 2-[(3-Bromo-4-fluoro-phenyl)-pyrrolidin-1-yl-methyl]-1-(4-fluoro-phenyl)-1H-pyrrole] |  |
| 51 | O=C(O)c1ccccc1-n1cccc1C(c1cc(Br)ccc1F)N1CCCC1 (centres unmarked) [Example 40, 2-{2-[(5-Bromo-2-fluoro-phenyl)-pyrrolidin-1-yl-methyl]-pyrrol-1-yl}-benzoic acid] |  |
| 41 | NC(=S)c1ccccc1-n1cccc1C(c1cc(Br)ccc1F)N1CCCC1 (centres unmarked) [Example 41, 2-{2-[(5-Bromo-2-fluoro-phenyl)-pyrrolidin-1-yl-methyl]-pyrrol-1-yl}-thiobenzamide] |  |
| 53 | CC(C)(C)c1ccc(C(c2cccn2C(C)(C)C)N2CCCC2)cc1 (centres unmarked) [Example 42, 1-tert-Butyl-2-[(4-tert-butyl-phenyl)-pyrrolidin-1-yl-methyl]-1H-pyrrole] |  |
